Results on 1 compound are retold here after ChEMBL document CHEMBL2074279, “Pharmacokinetics of 5 (and 6)-carboxy-2',7'-dichlorofluorescein and its diacetate promoiety in the liver” (J Pharmacol Exp Ther, 2003).

The target of data set [1] is ATP-binding cassette sub-family C member 3 (Rattus norvegicus, UniProt O88563). Kind of data set: TP_TRANSPORTER: inhibition of CDF uptake (CDF: 10 uM, Probenecid: 260 uM) in Mrp3-expressing Sf9 cells. As to conditions: sf9, 260 µM. The class given is functional.
Data set [2] has as its target ATP-binding cassette sub-family C member 2 (Rattus norvegicus, UniProt Q63120). The experiment in a line: TP_TRANSPORTER: inhibition of CDF uptake (CDF: 10 uM, Probenecid: 260 uM) in Mrp2-expressing Sf9 cells. The conditions noted are these: sf9, 260 µM. The class given is functional.

ATP-binding cassette sub-family C member 3, sequence (O88563 whole entry): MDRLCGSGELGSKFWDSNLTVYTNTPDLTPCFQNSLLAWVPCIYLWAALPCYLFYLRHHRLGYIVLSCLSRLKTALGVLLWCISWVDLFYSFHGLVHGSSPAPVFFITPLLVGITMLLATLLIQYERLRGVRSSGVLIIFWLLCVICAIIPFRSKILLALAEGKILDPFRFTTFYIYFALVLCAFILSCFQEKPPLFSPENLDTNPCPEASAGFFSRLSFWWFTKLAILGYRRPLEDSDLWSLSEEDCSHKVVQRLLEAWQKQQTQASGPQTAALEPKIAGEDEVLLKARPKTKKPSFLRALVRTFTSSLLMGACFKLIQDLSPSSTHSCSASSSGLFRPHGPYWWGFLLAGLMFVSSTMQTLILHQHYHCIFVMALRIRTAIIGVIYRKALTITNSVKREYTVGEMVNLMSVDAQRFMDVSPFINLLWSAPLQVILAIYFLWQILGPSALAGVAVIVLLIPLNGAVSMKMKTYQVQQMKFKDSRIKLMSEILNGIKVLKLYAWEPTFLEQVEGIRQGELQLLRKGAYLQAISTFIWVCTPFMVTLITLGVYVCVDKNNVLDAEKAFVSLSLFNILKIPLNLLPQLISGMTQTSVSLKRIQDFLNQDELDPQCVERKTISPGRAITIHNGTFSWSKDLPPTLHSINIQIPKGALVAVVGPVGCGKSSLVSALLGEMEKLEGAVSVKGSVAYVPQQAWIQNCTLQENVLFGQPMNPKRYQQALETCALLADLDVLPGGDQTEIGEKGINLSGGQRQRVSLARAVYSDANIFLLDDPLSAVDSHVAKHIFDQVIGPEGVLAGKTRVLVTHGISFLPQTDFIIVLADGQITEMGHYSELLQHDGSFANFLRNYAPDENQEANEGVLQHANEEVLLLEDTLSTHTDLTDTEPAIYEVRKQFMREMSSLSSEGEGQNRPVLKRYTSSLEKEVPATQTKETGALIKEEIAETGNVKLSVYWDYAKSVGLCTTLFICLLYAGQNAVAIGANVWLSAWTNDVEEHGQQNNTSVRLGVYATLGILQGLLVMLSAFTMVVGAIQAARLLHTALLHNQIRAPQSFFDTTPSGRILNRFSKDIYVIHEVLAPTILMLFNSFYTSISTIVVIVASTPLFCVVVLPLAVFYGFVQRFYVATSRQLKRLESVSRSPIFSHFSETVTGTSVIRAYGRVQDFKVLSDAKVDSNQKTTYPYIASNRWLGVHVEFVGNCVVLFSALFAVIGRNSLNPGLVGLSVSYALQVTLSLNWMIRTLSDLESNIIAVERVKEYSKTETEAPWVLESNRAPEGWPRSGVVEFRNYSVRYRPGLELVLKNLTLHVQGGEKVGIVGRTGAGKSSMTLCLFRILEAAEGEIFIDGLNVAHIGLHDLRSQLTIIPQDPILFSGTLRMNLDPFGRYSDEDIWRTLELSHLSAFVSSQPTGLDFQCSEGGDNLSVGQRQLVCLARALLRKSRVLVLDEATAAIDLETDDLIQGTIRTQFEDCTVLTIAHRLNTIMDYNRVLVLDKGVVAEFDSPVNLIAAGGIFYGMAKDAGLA
ATP-binding cassette sub-family C member 2, sequence (Q63120 whole entry): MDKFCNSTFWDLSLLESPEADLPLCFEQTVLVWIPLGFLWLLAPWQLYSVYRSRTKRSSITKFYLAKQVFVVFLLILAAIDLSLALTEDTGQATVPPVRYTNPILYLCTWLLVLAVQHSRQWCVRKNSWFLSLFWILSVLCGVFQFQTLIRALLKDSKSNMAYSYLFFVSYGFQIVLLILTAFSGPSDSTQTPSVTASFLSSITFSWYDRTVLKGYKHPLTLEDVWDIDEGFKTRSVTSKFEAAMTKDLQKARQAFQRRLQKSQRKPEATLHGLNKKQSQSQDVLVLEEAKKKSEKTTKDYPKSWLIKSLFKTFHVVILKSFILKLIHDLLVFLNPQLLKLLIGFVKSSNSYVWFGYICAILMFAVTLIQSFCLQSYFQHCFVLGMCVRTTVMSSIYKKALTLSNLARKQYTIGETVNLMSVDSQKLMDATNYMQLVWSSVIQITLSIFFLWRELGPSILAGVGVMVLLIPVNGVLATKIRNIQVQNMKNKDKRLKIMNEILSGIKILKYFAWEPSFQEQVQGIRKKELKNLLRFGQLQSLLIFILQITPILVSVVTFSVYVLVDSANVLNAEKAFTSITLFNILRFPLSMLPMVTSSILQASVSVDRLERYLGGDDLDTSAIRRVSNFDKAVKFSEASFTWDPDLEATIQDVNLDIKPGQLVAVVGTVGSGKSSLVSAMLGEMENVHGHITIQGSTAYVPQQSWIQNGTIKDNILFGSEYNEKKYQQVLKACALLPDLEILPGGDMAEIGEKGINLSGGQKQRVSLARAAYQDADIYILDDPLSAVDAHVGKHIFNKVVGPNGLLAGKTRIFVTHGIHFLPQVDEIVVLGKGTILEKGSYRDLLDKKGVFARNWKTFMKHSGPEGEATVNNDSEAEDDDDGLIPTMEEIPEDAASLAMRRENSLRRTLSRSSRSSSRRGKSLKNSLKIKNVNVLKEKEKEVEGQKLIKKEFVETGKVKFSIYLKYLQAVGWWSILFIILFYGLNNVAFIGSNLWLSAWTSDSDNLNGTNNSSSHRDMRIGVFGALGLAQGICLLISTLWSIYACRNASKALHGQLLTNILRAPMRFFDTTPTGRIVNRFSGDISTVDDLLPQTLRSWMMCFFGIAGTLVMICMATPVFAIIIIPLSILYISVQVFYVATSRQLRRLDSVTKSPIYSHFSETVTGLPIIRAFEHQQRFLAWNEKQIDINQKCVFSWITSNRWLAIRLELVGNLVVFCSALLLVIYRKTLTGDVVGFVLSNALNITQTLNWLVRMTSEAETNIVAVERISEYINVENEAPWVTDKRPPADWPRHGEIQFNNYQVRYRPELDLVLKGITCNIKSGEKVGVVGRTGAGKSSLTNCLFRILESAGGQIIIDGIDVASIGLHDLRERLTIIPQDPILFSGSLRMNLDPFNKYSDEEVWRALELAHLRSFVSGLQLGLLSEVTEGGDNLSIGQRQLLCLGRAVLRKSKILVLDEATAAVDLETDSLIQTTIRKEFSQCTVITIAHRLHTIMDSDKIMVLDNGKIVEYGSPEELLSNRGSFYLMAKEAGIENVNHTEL

With `CCCN(CCC)S(=O)(=O)c1ccc(C(=O)O)cc1` [PROBENECID], the Activity result in data set [1] is “inhibitor [(at a rough estimate) 35 % of control]”; in data set [2], “inhibitor [(at a rough estimate) 40 % of control]”.
